According to patent US12697336B2, “RUC-4 formulations” (CeleCor Therapeutics, Inc., priority 2021, dated 2026):

What was measured:
[1] = Example 1 formulation stability test: overnight (~18 hours) storage at −20° C., 5° C. and 20° C., visual observation; assay type: physicochemical; settings: pH 4.75
Description: Formulation solutions as described in Table 3 below were prepared and divided in to three equal portions that were stored overnight (~18 hours) at −20° C., 5° C. and 20° C., respectively. The formulations were observed, and the characteristics reported in Table 3 were noted, immediately for RT, immediately upon removing 5° C. formulations from refrigerator, and upon thawing of −20° C. formulations. Clear solutions of Compound (1) were obtained at pH 4.75 at concentrations of ≤17.5 mg/mL.

[2] = Solubility of Compound (1) in acetic acid; assay type: physicochemical; settings: organic solvent or mixture, read-out: Solubility in acetic acid (obtainable solution concentration)
Description: In particular, solutions of greater than 300 mg/mL are obtainable.

- Concentration at which clear solutions were obtained [1]: ≤ 17500 µg/mL
- solubility [2]: > 300 mg/mL
Compound: NCC(=O)Nc1cncc(-c2nn3c(=O)cc(N4CCNCC4)nc3s2)c1 [Compound (1)]
